Experimental data from PMC9917184, “Synthesis and Biological Evaluation of Potential Oncoimmunomodulator Agents” (International Journal of Molecular Sciences, 2023).

Key:
[1] = system: c-Myc gene expression; assay: c-Myc gene expression by RT-qPCR in MCF-7; assay type: cell-based, human; details: MCF-7, 100 µM, 48 h, control = 100
Experimental: (§1) We also studied the effect of compounds 3, 5, and 7 on both c-Myc and PD-L1 gene expression by RT-qPCR. For this study, we treated MCF-7 cells with 100 µM of the abovementioned compounds, and DMSO was used as a negative control and BMS-8 as a reference compound. After 48 h, cells were lysated, and after the extraction of their mRNA, a RT-pPCR assay was performed as described in the Experimental section.
(§2) MCF-7 cells at 70–80% confluence were collected, and 1.5 × 10^5 cells were placed in a six-well plate in 1.5 mL of medium. After 24h, cells were incubated with the corresponding compounds for 48 h. Cells were collected, and the total cellular RNA from MCF-7 cells was isolated using the Ambion RNA extraction kit according to the manufacturer’s instructions. The cDNA was synthesized by MMLV-RT with […] of extracted RNA and oligo(dT)15 according to the manufacturer’s instructions. Genes were amplified by a thermal cycler and StepOnePlus™ TaqMan® probes. TaqMan® Gene Expression Master Mix Fast containing the appropriate buffer for the amplification conditions, dNTPs, thermostable DNA polymerase enzymes, and a passive reference probe was used. To amplify each of the genes, the predesigned primers sold by Life Technologies TaqMan® Gene Expression Assays, Hs99999903-m1 (β-actin), Hs00153408-m1 (c-Myc), and Hs00204257-m1, (PD-L1) were used.

[2] = system: PD-L1 gene expression; assay: PD-L1 gene expression by RT-qPCR in MCF-7; assay type: cell-based, human; details: MCF-7, 100 µM, 48 h, control = 100
Experimental: as §1, §2

[3] = system: MCF-7; assay: MCF-7 cell viability in co-culture with Jurkat T cells (flow cytometry count); assay type: cell-based, human; details: 24 h; for viability at 100 µM: Homo sapiens, MCF7, MCF-7/Jurkat T co-culture, IFN-γ stimulated, read-out: percentage of living MCF-7 cells relative to non-treated co-cultures; for inhibition rate of MCF-7 cell viability: co-cultured with Jurkat T cells, 100 μM
In short: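 HT-29, MCF-7 or A-549 cells in IFN-γ (10 ng/mL) medium were co-cultured with 5 × 10^5 Jurkat T cells per well and 100 µM compound (DMSO control) for 24 h. Jurkat cells from the supernatant and trypsinized cancer cells were PFA-fixed and counted by flow cytometry. Living cells were expressed as % of untreated co-culture.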

[4] = system: membrane VEGFR-2; assay: Membrane VEGFR-2 relative quantification by flow cytometry in cancer cells co-cultured with Jurkat T cells; assay type: cell-based, human; details: 100 μM, 24 h; for %VEGFR2 (membrane): relative to non-treated co-cultures
In short: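 Interferon γ-stimulated human cancer cells co-cultured with Jurkat T cells and treated 24 h with compounds at 100 μM. Cells then fixed in 4% paraformaldehyde and co-stained with Alexa Fluor 647 anti-PD-L1 and FITC anti-VEGFR-2. Membrane levels quantified together by flow cytometry.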

[5] = system: MCF-7; assay: MCF-7 cell viability in co-culture with THP-1 cells; assay type: cell-based, human; details: for viability at 100 µM / inhibition at 100 µM: Homo sapiens; for viability at 100 µM: read-out: cancer cell viability (MCF-7); for inhibition at 100 µM: MCF7, read-out: cancer cell inhibition (MCF-7)
Experimental: The effect of the synthesized compounds on tumor cell proliferation in the presence of human monocytic leukemia cell line THP-1 was also studied. This assay was carried out using MCF-7 as the cancer cell line and different proportions of immune cells. Standard proportions for this assay were 1:5 cancer/immune, and we also carried out this assay using a 2:1 proportion of cancer cells as regards immune THP-1 cells. Assays were performed after 24 and 48 h of treatment and using 100 μM doses of selected compounds.
To study the effect of the compounds on the cell viability in co-culture with Jurkat T cells or THP-1 cells, 10^5 or 2 × 10^5 of the corresponding cancer cells line per well were seeded and incubated for 24 h, then the medium was changed by one cell culture medium supplemented with IFN-γ (10 ng/mL; human, Invitrogen®) and containing 5 × 10^5 or 10^5 Jurkat T cells or THP-1, respectively, per well and 100 µM of the corresponding compound or DMSO for the […] control. After 24 h/48 h of incubation, supernatants were collected to determine Jurkat T or THP-1 living cells, and on the other hand, corresponding cancer cells were collected with trypsin. Both types of suspension cells were fixed with 4% in PBS paraformaldehyde and counted by flow cytometry.

[6] = biological target: PD-L1 (Homo sapiens, UniProt Q9NZQ7); assay: Immunofluorescence microscopy of PD-L1 in MCF-7; assay type: cell-based; design: Alexa Fluor® 647 Rabbit monoclonal Anti-PD-L1 (ab215251); endogenous in cells; host or cells: MCF-7; details: MCF-7, 24 h of treatment
Description: We also observed the effect of triazole derivatives 3, 5 and 7 on both targets in MCF-7 by immunofluorescence microscopy (see Figure 2). We stained both targets with anti-PD-L1 conjugated to AlexaFluor®647 (red in Figure 2), as well as anti-c-Myc conjugated to fluorescein (green in Figure 2), to determine the amount of both targets. The nucleus was stained with Hoechst (blue in Figure 2).
We observed that in the DMSO control, c-Myc was located in the nucleus of the cell and the nucleus membrane nearby, and PD-L1 was preferentially positioned in the membrane or cytosol, favoring the contact between surrounding cells.
For immunofluorescence microscopy of the microtubule network, […] cells were plated on cover glass and incubated with the selected compounds. Cells were then fixed in 4% formaldehyde (in PBS pH 7.4) for 20 min at room temperature and permeabilized with PBS-Triton X-100 0.5% for 1 min at room temperature. Direct immunostaining was carried out for 1 h at room temperature with FITC Mouse monoclonal Anti-c-Myc (ab223913) and Alexa Fluor® 647 Rabbit monoclonal Anti-PD-L1 (ab215251). Then, cells were washed in PBS, and cover glasses were mounted with a drop of ProLong® antifade solution (Invitrogen). The cytoskeleton was imaged by a confocal laser scanning microscope (CLSM) Leica SP5 with a Leica inverted microscope, equipped with 20x objective. Each image was recorded with the CLSM’s spectral mode selecting specific domains of the emission spectrum. The FITC fluorophore was excited at 488 nm with an argon laser, and its fluorescence emission was collected between 496 nm and 535 nm.

[7] = A549 co-cultured with Jurkat T cells
[8] = HT29 co-cultured with Jurkat T cells
[9] = MCF7 co-cultured with Jurkat T cells
[10] = MCF7, 24 h, 1:5 MCF-7/THP-1, 100 μM, 24 h, control = 100
[11] = MCF7, 24 h, 2:1 MCF-7/THP-1, 100 μM, 24 h, control = 100
[12] = MCF7, 48 h, 1:5 MCF-7/THP-1, 100 μM, 48 h, control = 100
[13] = MCF7, 48 h, 2:1 MCF-7/THP-1, 100 μM, 48 h, control = 100

Sequence of PD-L1 (Q9NZQ7 19-290): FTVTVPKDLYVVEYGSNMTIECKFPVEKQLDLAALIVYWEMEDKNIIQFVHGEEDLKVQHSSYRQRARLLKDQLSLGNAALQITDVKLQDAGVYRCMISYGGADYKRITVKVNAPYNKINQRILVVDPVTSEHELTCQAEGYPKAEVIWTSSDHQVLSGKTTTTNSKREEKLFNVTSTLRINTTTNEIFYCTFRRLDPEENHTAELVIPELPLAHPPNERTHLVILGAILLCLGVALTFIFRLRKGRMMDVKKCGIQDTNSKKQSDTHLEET

PD-L1 localisation (confocal images) [6]	Structure (SMILES)	% c-Myc gene expression [1] [%]	% PD-L1 gene expression [2] [%]	viability at 100 µM [3] [%]	%VEGFR2 (membrane) [4, 7] [%]	%VEGFR2 (membrane) [4, 8] [%]	%VEGFR2 (membrane) [4, 9] [%]	viability at 100 µM [5, 10] [%]	viability at 100 µM [5, 11] [%]	viability at 100 µM [5, 12] [%]	viability at 100 µM [5, 13] [%]	inhibition at 100 µM ([5]; 2:1 MCF-7/THP-1, 100 μM, 48 h) [%]	inhibition rate of MCF-7 cell viability [3]	membrane VEGFR-2 inhibition rate ([4]; A-549 co-cultured with Jurkat T cells)	membrane VEGFR-2 inhibition rate ([4]; HT-29 co-cultured with Jurkat T cells)	membrane VEGFR-2 inhibition rate ([4]; MCF-7 co-cultured with Jurkat T cells)	cancer cell viability (MCF-7) ([5]; 1:5 MCF-7/THP-1, 100 μM, 24 h, control = 100, 100 µM) [%]
located preferentially in the nucleus	Cc1c(COc2ccc(CN3CCCCC3C(=O)O)cc2Br)cccc1-c1ccccc1 (centres unmarked) [BMS-8, reference compound]	30 ± 10	31 ± 12	57 ± 7	104 ± 9	63 ± 4	100 ± 2	91 ± 30	100 ± 4	42 ± 5	58 ± 10						
preferentially in cytosol	COc1ccc(C(OCCc2ccc(CCn3cc(-c4ccccc4Br)nn3)cc2)(c2ccccc2)c2ccc(OC)cc2)cc1 [Compound 7, 1-(4-(2-(bis(4-methoxyphenyl)(phenyl)methoxy)ethyl)phenethyl)-4-(2-bromophenyl)-1H-1,2,3-triazole]	12 ± 5	36 ± 9	41 ± 4	89 ± 5	93 ± 3	100 ± 0	42 ± 10	92 ± 11	41 ± 10	60 ± 13	40	around 60%				
accumulates in the cytosol	COc1ccc(C(OCCc2ccc(CCn3cc(-c4ccc(Br)cc4)nn3)cc2)(c2ccccc2)c2ccc(OC)cc2)cc1 [Compound 3, 1-(4-(2-(bis(4-methoxyphenyl)(phenyl)methoxy)ethyl)phenethyl)-4-(4-bromophenyl)-1H-1,2,3-triazole]	50 ± 7	33 ± 10	45 ± 4	73 ± 4	81 ± 7	81 ± 4	50	83 ± 9	28 ± 2	51 ± 17	50	around 60%	around 20%	around 20%	around 20%	52 ± 7

Structure (SMILES)	PD-L1 localisation (confocal images) [6]	% c-Myc gene expression [1] [%]	% PD-L1 gene expression [2] [%]	viability at 100 µM [3] [%]	%VEGFR2 (membrane) [4, 7] [%]	%VEGFR2 (membrane) [4, 8] [%]	%VEGFR2 (membrane) [4, 9] [%]	viability at 100 µM [5, 10] [%]	viability at 100 µM [5, 11] [%]	viability at 100 µM [5, 12] [%]	viability at 100 µM [5, 13] [%]	inhibition at 100 µM ([5]; 2:1 MCF-7/THP-1, 100 μM, 48 h) [%]	inhibition rate of MCF-7 cell viability [3]	membrane VEGFR-2 inhibition rate ([4]; A-549 co-cultured with Jurkat T cells)	membrane VEGFR-2 inhibition rate ([4]; HT-29 co-cultured with Jurkat T cells)	membrane VEGFR-2 inhibition rate ([4]; MCF-7 co-cultured with Jurkat T cells)	cancer cell viability (MCF-7) ([5]; 1:5 MCF-7/THP-1, 100 μM, 24 h, control = 100, 100 µM) [%]
COc1ccc(C(OCCc2ccc(CCn3cc(-c4cccc(Br)c4)nn3)cc2)(c2ccccc2)c2ccc(OC)cc2)cc1 [Compound 5, 1-(4-(2-(bis(4-methoxyphenyl)(phenyl)methoxy)ethyl)phenethyl)-4-(3-bromophenyl)-1H-1,2,3-triazole]	accumulated in the interface of cells and in the nucleus	33 ± 5	21 ± 8	37 ± 5	92 ± 2	85 ± 4	85 ± 4	52 ± 4	107 ± 3	42 ± 10	69 ± 10	30					
